Data from US9440992B2, “5,7-disubstituted thiazolo[4,5-D]pyrimidines as chemokine inhibitors” (Acturum Life Science AB, priority 2005, dated 2016).

Assays:
CX3CR1 = biological target: T1, CX3CR1 (Homo sapiens, UniProt P49238); test: [125I]-fractalkine competition receptor binding assay on hCX3CR1 membranes; conditions: 25° C. for 24 h
T1 construct: expressed in transfected cells; host or cells: human embryonic kidney suspension (HEKS) 293 cell line stably expressing chimeric G-protein Gαqi5; membranes
T1 sequence (P49238 1-355): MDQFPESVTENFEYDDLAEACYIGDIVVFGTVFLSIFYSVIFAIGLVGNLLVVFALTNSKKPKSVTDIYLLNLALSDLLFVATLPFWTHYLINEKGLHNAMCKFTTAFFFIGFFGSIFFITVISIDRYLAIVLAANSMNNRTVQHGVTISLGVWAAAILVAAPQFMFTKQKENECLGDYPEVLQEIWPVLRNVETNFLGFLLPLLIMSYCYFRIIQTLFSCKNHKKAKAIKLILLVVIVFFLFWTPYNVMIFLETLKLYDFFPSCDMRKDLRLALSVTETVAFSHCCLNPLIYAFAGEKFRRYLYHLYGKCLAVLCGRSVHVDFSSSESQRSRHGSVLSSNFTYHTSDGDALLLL

CXCR2 = biological target: T2, CXCR2 (Homo sapiens, UniProt P25025); test: [125I]-hIL-8 competition binding (SPA) on membranes of cells expressing human CXCR2; conditions: receptor binding, [125I]-hIL-8, RT for 4 h
T2 construct: cultured under geneticin/G418 selection; membranes
T2 sequence (P25025 1-360): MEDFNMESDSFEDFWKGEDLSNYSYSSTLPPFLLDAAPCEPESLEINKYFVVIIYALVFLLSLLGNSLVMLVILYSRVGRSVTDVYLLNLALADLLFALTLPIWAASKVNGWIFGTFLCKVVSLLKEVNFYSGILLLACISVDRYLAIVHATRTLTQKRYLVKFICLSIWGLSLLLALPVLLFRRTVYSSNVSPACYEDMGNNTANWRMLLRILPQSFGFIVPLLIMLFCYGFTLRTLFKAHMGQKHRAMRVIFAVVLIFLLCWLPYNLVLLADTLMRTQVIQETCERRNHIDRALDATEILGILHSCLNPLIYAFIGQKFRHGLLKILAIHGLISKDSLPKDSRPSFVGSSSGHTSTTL
Experimental: Recombinant human fractalkine (hCX3CL1) and recombinant human interleukin-8 (IL-8 or hCXCL8) were purchased from PeproTech Inc., UK. Recombinant [^125I]-fractalkine (human) and [^125I] hIL-8 with the specific activity of 2200 Ci/mmol, was purchased from NEN® Life Science Products, Inc., UK. Fluo4-AM was purchased from Molecular Probes, US. All other chemicals were of analytical grade.
Cells expressing human CXCR2 obtained from AstraZeneca Charnwood are cultured in EMEM containing Glutamax and supplemented with 10% FBS (from PAA, Austria), 1% non-essential amino acids (NEAA), 100 U/mL penicillin and 100 μg/mL streptomycin (PEST) and 500 μg/mL geneticin/G418.
Cells are grown at 37° C. and 5% CO2 and harvested at 60-80% confluence in buffer containing 10 mM Tris-HCl pH 7.4, 5 mM EDTA, 0.1 mg/mL bacitracin. The cells are centrifuged at 300×g for 10 min and the pellet is resuspended in harvesting buffer (10 mM Tris-HCl, pH 7.4, 5 mM ethylenediaminetetra-aceticacid (EDTA) and 0.1 mg/mL bacitracin), pooled and homogenised using a Dounce homogeniser. The homogenate is centrifuged in 48000×g for 10 min and resuspended in harvesting buffer using Ultra-Turrax T8. Membrane aliquots are stored at −80° C. Protein concentration was determined in microtiter plates as described by Harrington (1990, Anal. Biochem. 186, 285-287).
The [^125I]-hIL-8 competition binding studies are performed in singlicates in white clear bottom 96-well isoplates with a final volume of 200 μL and each well contains 150 pM [^125I]-hIL-8 (specific activity 2200 Ci/mmol), membrane-SPA preparation equivalent to 20 pM receptors and 1.5 mg SPA-beads in assay buffer [50 mM HEPES-KOH pH 7.4, 10 mM MgCl2, 1 mM EDTA, 0.5% (w/v) gelatin]. The test compounds were treated as above. The non-specific binding is determined in the presence of 500 nM unlabelled hIL-8. The agonist hIL-8 (a concentration-response curve from 3 pM to 30 nM), is used as reference compound at each test occasion. […] The binding reaction is started by addition of 140 μL membrane-SPA preparation, and the samples are incubated in dark at RT for 4 h. Assay plates are counted in a liquid scintillation counter (Wallac MicroBeta® TriLux 1450 from PerkinElmer, USA).

| SMILES | Ki (CX3CR1) [nM] | Ki (CXCR2) [nM] |
| --- | --- | --- |
| CCC[C@H](CO)Nc1nc(SCc2ccccc2)nc2nc(N)sc12 [reference compound] | 592 | 540 |
| CC(C)C[C@H](CO)Nc1nc(SCc2cccc(C#N)c2)nc2nc(N)sc12 [reference compound] | 156 | 1980 |
| CC(C)C[C@H](CO)Nc1nc(SC(C)c2ccccc2Cl)nc2nc(N)sc12 (stereo partly drawn) | 5.9 | 5650 |
| CC(C)C[C@H](CO)Nc1nc(S[C@@H](C)c2cccc(C#N)c2)nc2nc(N)sc12 | 14 | 4210 |
| CCC[C@H](CO)Nc1nc(S[C@@H](C)c2ccccc2)nc2nc(N)sc12 | 52 | 1140 |
| CC(C)C[C@H](CO)Nc1nc(SCc2ccccc2Cl)nc2nc(N)sc12 [reference compound] | 51 | 1810 |
| CC(C)C[C@H](CO)Nc1nc(SCc2ccccc2)nc2nc(N)sc12 [reference compound] | 48 | 531 |
| CCC(Sc1nc(N[C@@H](CO)CC(C)C)c2sc(N)nc2n1)c1ccccc1 (stereo partly drawn) | 3.1 | 2760 |
| CC(C)C[C@H](CO)Nc1nc(SC(C)c2ccccc2)nc2nc(N)sc12 (stereo partly drawn) | 3.8 | 3430 |
